The nature of data set [1]: In vitro drug release by dialysis. Type of data set: physicochemical. As to conditions: pH 7.4 and 6.0. Here is the method:
DOX release from the nanoparticles was studied at pH 6.0, 6.6 and 7.4. A certain amount of DOX-loaded freeze-dried nanoparticles was dispersed in 200 μL of the respective buffer solution and allowed to stabilize for 30 minutes before being placed in a dialysis membrane with a molecular weight cut-off of 2000 (Spectra/Por). The dialysis bag was then immersed in 25 mL of PBS with pH 6.0, 6.6 or 7.4 at 37° C. The samples were drawn at specific time intervals and the drug concentration was analyzed using the UV-VIS spectrophotometer as stated in paragraph A(vi) of the present example.

The conditions of data set [2]: cited from earlier work.

For the compound `COc1cccc2c1C(=O)c1c(O)c3c(c(O)c1C2=O)C[C@@](O)(C(=O)CO)C[C@@H]3O[C@H]1C[C@H](N)[C@H](O)[C@H](C)O1` [DOX, doxorubicin], the “effect of pH on release of free DOX from the dialysis bag” value in data set [1] is listed as “no significant effect of pH”.

One may read the pKa as the negative logarithm of the acid dissociation constant. Turning to `Nc1nc2ncc(CNc3ccc(C(=O)N[C@@H](CCC(=O)O)C(=O)O)cc3)nc2c(=O)[nH]1` [Folic acid], the pKa in data set [2] is reported as roughly 5.4.

Source of the values: patent publication US7316816B2, “Temperature and pH sensitive copolymers” (Agency for Science Technology and Research, priority 2004, dated 2008).
